Reference: patent US8680122B2, “Substituted pyrrolones as allosteric modulators of glucokinase” (Janssen Pharmacetica N.V., priority 2005, dated 2014)
pEC50: −log10 of the molar value. “And” between values parts separate entries of the source, which are not always exact repeats. Identical values can stand only once.

What was measured:
Pancreas GK = target: T1, Pancreas GK (Homo sapiens, UniProt P35557); experiment: Glucokinase enzyme assay, pancreas GK; assay type: biochemical; details: for activation at 50 µM: percentage increase in GK activity above vehicle control, compound 50 μM, 12 mM glucose; for pEC50: concentration that produces 50% activation above the vehicle control; for EC100%: concentration that produces 100% activation above the vehicle control
T1 construct: (His)6; made in house; host or cells: Escherichia coli
T1 sequence (P35557 1-465): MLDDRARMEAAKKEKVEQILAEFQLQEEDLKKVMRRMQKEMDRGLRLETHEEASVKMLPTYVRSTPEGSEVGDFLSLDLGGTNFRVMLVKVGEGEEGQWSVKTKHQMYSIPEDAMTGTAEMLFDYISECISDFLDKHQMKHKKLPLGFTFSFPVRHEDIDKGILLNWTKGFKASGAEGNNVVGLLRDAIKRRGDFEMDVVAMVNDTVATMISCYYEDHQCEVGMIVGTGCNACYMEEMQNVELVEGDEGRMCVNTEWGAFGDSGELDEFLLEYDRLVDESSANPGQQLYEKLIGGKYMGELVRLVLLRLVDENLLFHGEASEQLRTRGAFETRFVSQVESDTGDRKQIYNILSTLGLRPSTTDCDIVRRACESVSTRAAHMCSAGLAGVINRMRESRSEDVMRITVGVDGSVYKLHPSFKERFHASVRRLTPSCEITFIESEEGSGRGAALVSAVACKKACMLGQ
Source text: (§1) An enzymatic Glucokinase (GK) assay using purified recombinant human liver/pancreas enzyme was used to evaluate the effects of potential small molecule modulators.
(§2) In this assay, GK catalyzes glucose phosphorylation in the presence of ATP. The product of this reaction, glucose-6-phosphate, was then oxidized by an excess of glucose-6-phosphate dehydrogenase to produce gluconate-6-phosphate with concomitant reduction of nicotinamide adenine dinucleotide (NAD). […] Human GK (Liver/Pancreas) was expressed in Escherichia coli as a (His) 6-tagged fusion protein and was purified by metal chelate affinity chromatography. The assay was performed in a final incubation volume of 80 μl in a 96-well clear low UV absorption plates. The incubation mixture consisted of 25 mM HEPES, 2 mM MgSO4, 1 mM dithiothreotol (DTT), 1 mg/mL bovine serum albumin (BSA), 1 mM ATP, 1 mM NAD, and 12 mM glucose, 10 units per mL glucose-6-phosphate dehydrogenase, and +/−300 ng per mL GK. For determination of the affinity (Km) and Vmax, different concentrations of glucose ranging from 0.5 mM to 40 mM were used in the assay; see Grimsby, J., Sarabu, R.; Grippo, J. F.; et. al. Science 2003, 301, 370-373. Production of reduced NAD (Nicotinamide Adenine Dinucleotide) was measured as changes in absorption at 340 nm in 96-well plate reader (Envision model #2101 Multilabel Plate reader). % Activation @ 50 μM was calculated as the percentage increase in GK activity above the vehicle control with the effective concentration of the compound being 50 μM. EC50% (μM) was calculated as the effective concentration of the compound that produces 50% activation above the vehicle control, and EC100% (μM) was calculated as the effective concentration of the compound that produces 100% activation above the vehicle control.

Liver GK = target: T2, Liver GK (Homo sapiens, UniProt P35557); experiment: Glucokinase enzyme assay, liver GK; assay type: biochemical; details: for activation at 50 µM: percentage increase in GK activity above vehicle control, compound 50 μM, 12 mM glucose; for pEC50: concentration that produces 50% activation above the vehicle control; for EC100%: concentration that produces 100% activation above the vehicle control
T2 construct: (His)6; made in house; host or cells: Escherichia coli
T2 sequence (P35557 1-466 isoform P35557-2): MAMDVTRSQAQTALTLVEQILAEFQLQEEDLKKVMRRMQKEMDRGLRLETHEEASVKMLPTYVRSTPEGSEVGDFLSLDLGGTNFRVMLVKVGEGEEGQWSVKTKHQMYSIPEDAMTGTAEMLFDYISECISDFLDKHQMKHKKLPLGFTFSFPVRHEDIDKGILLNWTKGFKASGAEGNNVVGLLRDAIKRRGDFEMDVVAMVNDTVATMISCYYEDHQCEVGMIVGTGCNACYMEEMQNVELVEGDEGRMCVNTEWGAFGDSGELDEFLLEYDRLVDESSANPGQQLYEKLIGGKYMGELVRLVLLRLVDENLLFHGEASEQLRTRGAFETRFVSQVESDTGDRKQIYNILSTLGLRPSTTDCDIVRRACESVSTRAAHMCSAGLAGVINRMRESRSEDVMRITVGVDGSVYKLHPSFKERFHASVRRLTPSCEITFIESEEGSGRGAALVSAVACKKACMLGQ
Source text: as §1, §2

activation at 50 µM (Pancreas GK)	activation at 50 µM (Liver GK)	pEC50 (Pancreas GK)	EC100% (Pancreas GK)	pEC50 (Liver GK)	EC100% (Liver GK)	SMILES
24%	37%	–	–	–	–	COc1ccc(CN2C(=O)C(C)=C(C)[C@H]2S[C@H](C)C(=O)Nc2ccccn2)cc1 (stereo in doubt) [Compound 32, 2-[1-(4-Methoxy-benzyl)-3,4-dimethyl-5-oxo-2,5-dihydro-1H-pyrrol-2-ylsulfanyl]-N-pyridin-2-yl-propionamide]
287%	–	6.19	2.23 µM	6.41 and 6.59	1.46 µM	COC(=O)c1ccc(NC(=O)CSC2C(C)=C(C)C(=O)N2Cc2ccc(OC)cc2)nc1 (stereo not drawn) [Compound 1, 6-{2-[1-(4-Methoxy-benzyl)-3,4-dimethyl-5-oxo-2,5-dihydro-1H-pyrrol-2-ylsulfanyl]-acetylamino}-nicotinic acid methyl ester]
–	169%	–	–	5.03	–	COc1ccc(CN2C(=O)C(C)=C(C)C2SCC(=O)Nc2nccs2)cc1 (stereo not drawn) [Compound 2, 2[1-(4-Methoxy-benzyl)-3,4-dimethyl-5-oxo-2,5-dihydro-1H-pyrrol-2-ylsulfanyl]-N-thiazol-2-yl-acetamide]
–	64.9%	–	–	–	–	COc1ccc(CN2C(=O)C(c3ccccc3)=CC2SCC(=O)Nc2nccs2)cc1 (stereo not drawn) [Compound 3, 2-[1-(4-Methoxy-benzyl)-5-oxo-4-phenyl-2,5-dihydro-1H-pyrrol-2-ylsulfanyl]-N-thiazol-2-yl-acetamide]
–	–	–	–	4.70 and 4.61	37.3 µM and 30.4 µM	COC(=O)c1ccc(NC(=O)CSC2C(c3ccccc3)=C(c3ccccc3)C(=O)N2Cc2ccc(OC)cc2)nc1 (stereo not drawn) [Compound 4]
–	222%	–	–	5.48	8.3 µM	COc1ccc(CN2C(=O)C(C)=C(C)C2SCC(=O)Nc2ccccn2)cc1 (stereo not drawn) [Compound 5, 2-[1-(4-Methoxy-benzyl)-3,4-dimethyl-5-oxo-2,5-dihydro-1H-pyrrol-2-ylsulfanyl]-N-pyridin-2-yl-acetamide]
–	175%	–	–	5.20	20.1 µM	COc1ccc(CN2C(=O)C(C)=C(C)C2SCC(=O)Nc2cnccn2)cc1 (stereo not drawn) [Compound 6, 2-[1-(4-Methoxy-benzyl)-3,4-dimethyl-5-oxo-2,5-dihydro-1H-pyrrol-2-ylsulfanyl]-N-pyrazin-2-yl-acetamide]
–	114%	–	–	4.94	38.9 µM	CCOC(=O)Cc1csc(NC(=O)CSC2C(C)=C(C)C(=O)N2Cc2ccc(OC)cc2)n1 (stereo not drawn) [Compound 7, (2-{2-[1-(4-Methoxy-benzyl)-3,4-dimethyl-5-oxo-2,5-dihydro-1H-pyrrol-2-ylsulfanyl]-acetylamino}-thiazol-4-yl)-acetic acid ethyl ester]
–	169%	–	–	5.57	9.77 µM	COc1ccc(CN2C(=O)C(C)=C(C)C2SCC(=O)Nc2ccc(Cl)cn2)cc1 (stereo not drawn) [Compound 8, N-(5-Chloro-pyridin-2-yl)-2-[1-(4-methoxy-benzyl)-3,4-dimethyl-5-oxo-2,5-dihydro-1H-pyrrol-2-ylsulfanyl]-acetamide]
–	215%	–	–	5.85	4.9 µM	COc1ccc(CN2C(=O)C(C)=C(C)C2SCC(=O)Nc2ccc(C)cn2)cc1 (stereo not drawn) [Compound 9, 2-[1-(4-Methoxy-benzyl)-3,4-dimethyl-5-oxo-2,5-dihydro-1H-pyrrol-2-ylsulfanyl]-N-(5-methyl-pyridin-2-yl)-acetamide]
–	128%	–	–	4.91	39.92 µM	COc1ccc(CN2C(=O)C(C)=C(C)C2SCC(=O)Nc2ccccn2)c(OC)c1 (stereo not drawn) [Compound 10, 2-[1-(2,4-Dimethoxy-benzyl)-3,4-dimethyl-5-oxo-2,5-dihydro-1H-pyrrol-2-ylsulfanyl]-N-pyridin-2-yl-acetamide]
–	243%	–	–	5.62	5.83 µM	COc1ccc(CN2C(=O)C(C)=C(C)C2SCC(=O)Nc2ccccn2)cc1OC (stereo not drawn) [Compound 11, 2-[1-(3,4-Dimethoxy-benzyl)-3,4-dimethyl-5-oxo-2,5-dihydro-1H-pyrrol-2-ylsulfanyl]-N-pyridin-2-yl-acetamide]
–	198%	–	–	5.54	8.72 µM	CC1=C(C)C(SCC(=O)Nc2ccccn2)N(Cc2ccc(F)cc2)C1=O (stereo not drawn) [Compound 12, 2-[1-(4-Fluoro-benzyl)-3,4-dimethyl-5-oxo-2,5-dihydro-1H-pyrrol-2-ylsulfanyl]-N-pyridin-2-yl-acetamide]
–	122%	–	–	5.00	37.08 µM	COc1ccc(CN2C(=O)C(C)=CC2SCC(=O)Nc2ccccn2)cc1 (stereo not drawn) [Compound 15, 2-[1-(4-Methoxy-benzyl)-4-methyl-5-oxo-2,5-dihydro-1H-pyrrol-2-ylsulfanyl]-N-pyridin-2-yl-acetamide]
–	166%	–	–	5.17	17.01 µM	CC1=C(C)C(SCC(=O)Nc2ccccn2)N(Cc2ccc(OC(F)F)cc2)C1=O (stereo not drawn) [Compound 16, 2-[1-(4-Difluoromethoxy-benzyl)-3,4-dimethyl-5-oxo-2,5-dihydro-1H-pyrrol-2-ylsulfanyl]-N-pyridin-2-yl-acetamide]
167%	217%	5.45	12.02 µM	5.95	3.61 µM	COc1ccc(CN2C(=O)C(C)=C(C)C2SCC(=O)Nc2ccc(C(N)=O)cn2)cc1 (stereo not drawn) [Compound 18]
–	–	5.60 and 5.80	–	–	–	COc1ccc(CN2C(=O)C(C)=C(C)C2SCC(=O)Nc2ccc(C(=O)O)cn2)cc1 (stereo not drawn) [Compound 33]
163%	–	5.60	12 µM	–	–	CC1=C(C)C(SCC(=O)Nc2ccccn2)N(Cc2ccc(N(C)C)cc2)C1=O (stereo not drawn) [Compound 34, 2-[1-(4-Dimethylamino-benzyl)-3,4-dimethyl-5-oxo-2,5-dihydro-1H-pyrrol-2-ylsulfanyl]-N-pyridin-2-yl-acetamide]
156%	–	6.01	5.3 µM	–	–	COC(=O)c1ccc(NC(=O)CSC2C(C)=C(C)C(=O)N2Cc2ccc(F)cc2)nc1 (stereo not drawn) [Compound 35, 6-{2-[1-(4-Fluoro-benzyl)-3,4-dimethyl-5-oxo-2,5-dihydro-1H-pyrrol-2-ylsulfanyl]-acetylamino}-nicotinic acid methyl ester]
–	–	5.60	18 µM	–	–	COC(=O)c1ccc(NC(=O)CSC2C(C)=C(C)C(=O)N2Cc2ccc(OC(F)F)cc2)nc1 (stereo not drawn) [Compound 36, 6-{2-[1-(4-Difluoromethoxy-benzyl)-3,4-dimethyl-5-oxo-2,5-dihydro-1H-pyrrol-2-ylsulfanyl]-acetylamino}-nicotinic acid methyl ester]
209%	–	5.96	1.09 µM	–	–	COC(=O)c1ccc(NC(=O)CSC2C(C)=C(C)C(=O)N2Cc2ccc3c(c2)CCO3)nc1 (stereo not drawn) [Compound 37]
–	–	5.96	8.9 µM	–	–	COC(=O)c1ccc(NC(=O)CSC2C(C)=C(C)C(=O)N2Cc2cccs2)nc1 (stereo not drawn) [Compound 38, 6-[2-(3,4-Dimethyl-5-oxo-1-thiophen-2-ylmethyl-2,5-dihydro-1H-pyrrol-2-ylsulfanyl)-acetylamino]-nicotinic acid methyl ester]
–	–	5.94	5.3 µM	–	–	COC(=O)c1ccc(NC(=O)CSC2C(C)=C(C)C(=O)N2Cc2ccc(OC)c(OC)c2)nc1 (stereo not drawn) [Compound 39]
–	–	5.64	19 µM	–	–	COC(=O)c1ccc(NC(=O)CSC2C(C)=C(C)C(=O)N2Cc2cc(OC)cc(OC)c2)nc1 (stereo not drawn) [Compound 40]
